Experiments:
[1] = system: GALAP (Galium); assay: Postemergence herbicidal evaluation; format: in vivo, Galium aparine; details: postemergence
How it was run: (§1)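 First, seedlings were raised for around two weeks. Next, test material in 50/50 acetone/water containing 0.5% TWEEN 20 was sprayed through a nozzle at 40 psi, equivalent to about 0.0156–0.500 kg/ha. Finally, after 4–5 weeks in the greenhouse, plants were rated 0–9.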

[2] = system: IPOHE (Morningglory, Ivyleaf); assay: Postemergence herbicidal evaluation; format: in vivo, Ipomoea hederacea; details: postemergence
How it was run: as §1

[3] = system: IPOHE (Morningglory, Ivyleaf); assay: Preemergence herbicidal evaluation; format: in vivo, Ipomoea hederacea; details: rated 4-5 weeks after treatment
How it was run: (§2)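 Scores use a 0–9 visual scale covering stand, vigor, malformation, size and chlorosis relative to controls, rated four to five weeks after treatment. Before emergence, soil-planted seeds were sprayed with compound in aqueous acetone at roughly 0.0156–0.500 kg/ha and held in the greenhouse.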

[4] = system: ZEAMX (Corn, Field); assay: Preemergence herbicidal evaluation; format: in vivo, Zea mays; details: rated 4-5 weeks after treatment
Source text: (§3) Results of herbicide evaluation are expressed on a rating scale (0-9). The scale is based upon a visual observation of plant stand, vigor, malformation, size, chlorosis and overall plant appearance as compared with a control.
(§4) The preemergence herbicidal activity of the test compounds of the present invention is exemplified by the following tests in which the seeds of a variety of monocotyledonous and dicotyledonous plants are separately mixed with potting soil and planted on top of approximately one inch of soil in separate pint cups. After planting, the cups are sprayed with the selected aqueous acetone solution containing test compound in sufficient quantity to provide the equivalent of about 0.0156 to 0.500 kg per hectare of test compound per cup. The treated cups are then placed on greenhouse benches, watered and cared for in accordance with conventional greenhouse procedures. From four to five weeks after treatment, the tests are terminated and each cup is examined and rated according to the rating system provided in Example 37.
(§5) The compounds evaluated are reported by compound number given in Example 37.

[5] = system: SETVI (Foxtail, Green); assay: Preemergence herbicidal evaluation; format: in vivo, Setaria viridis; details: rated 4-5 weeks after treatment
Source text: as §3, §4, §5

[6] = system: TRZAWR (Wheat, Winter, cv Riband); assay: Postemergence herbicidal evaluation; format: in vivo, Triticum aestivum; details: postemergence
How it was run: as §1

[7] = system: CYPIR (Rice Flatsedge); assay: Preemergence weed control under flooded paddy conditions; format: in vivo, Cyperus iria; details: rated 3-4 weeks after treatment
How it was run: (§6)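 Visual injury scored 0-9 against control three to four weeks post-treatment, greenhouse-grown. Application: acetone/water (50/50) solutions dosed directly into flood water (1.5-3 cm over silt loam, planted top 0.5 cm), roughly 0.0313 to 0.500 kg/ha active ingredient.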

[8] = system: ABUTH (Velvetleaf); assay: Preemergence herbicidal evaluation; format: in vivo, Abutilon theophrasti; details: rated 4-5 weeks after treatment
How it was run: as §2

[9] = system: ECHCG (Barnyardgrass); assay: Preemergence herbicidal evaluation; format: in vivo, Echinochloa crus-galli; details: rated 4-5 weeks after treatment
Source text: as §3, §4, §5

[10] = system: SETVI (Foxtail, Green); assay: Postemergence herbicidal evaluation; format: in vivo, Setaria viridis; details: postemergence
How it was run: as §1

[11] = system: MOOVA (Monochoria); assay: Preemergence weed control under flooded paddy conditions; format: in vivo, Monochoria vaginalis; details: rated 3-4 weeks after treatment
How it was run: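 Using flooded silt loam (water 1.5 to 3 cm deep), seeds sown in the top 0.5 cm were exposed preemergence to compound pipetted into the flood at about 0.0313 to 0.500 kg/ha. Effects were scored 0-9 by eye three to four weeks later.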

[12] = system: ECHORC (Watergrass (Calif.)); assay: as above; format: in vivo, Echinochloa oryzoides; details: rated 3-4 weeks after treatment
How it was run: as §6

[13] = rate 0.0625 kg/ha, rating scale 0-9
[14] = rate 0.1250 kg/ha, rating scale 0-9
[15] = rate 0.2500 kg/ha, rating scale 0-9

Cn1c(C(F)(F)F)cc(=O)n(-c2cc(N=C3SCC(=O)N3Cc3cccnc3)c(Cl)cc2F)c1=O [Compound 132, 3-{4-Chloro-2-fluoro-5-{[4-oxo-3-(3-pyridylmethyl)-2-thiazolidinylidene]amino}phenyl}-1-methyl-6-(trifluoromethyl)-2,4 (1H,3H)-pyrimidinedione]
Herbicidal rating GALAP ([1]; rate 0.0156 kg/ha): 2.0 | Herbicidal rating GALAP ([1]; rate 0.0313 kg/ha): 2.0 | Herbicidal rating GALAP ([1]; rate 0.0625 kg/ha): 3.0 | Herbicidal rating IPOHE ([2]; rate 0.0156 kg/ha): 6.0 | Herbicidal rating IPOHE ([2]; rate 0.0313 kg/ha): 9.0 | Herbicidal rating IPOHE ([2]; rate 0.0625 kg/ha): 9.0 | Preemergence herbicidal rating IPOHE [3, 13]: 0.0 | Preemergence herbicidal rating IPOHE [3, 14]: 0.0 | Preemergence herbicidal rating IPOHE [3, 15]: 2.0 | Preemergence herbicidal rating ZEAMX [4, 13]: 0.0 | Preemergence herbicidal rating ZEAMX [4, 14]: 0.0 | Preemergence herbicidal rating ZEAMX [4, 15]: 2.0 | Preemergence herbicidal rating SETVI [5, 13]: 0.0 | Preemergence herbicidal rating SETVI [5, 14]: 3.0 | Preemergence herbicidal rating SETVI [5, 15]: 9.0 | Herbicidal rating TRZAWR ([6]; rate 0.0156 kg/ha): 3.0 | Herbicidal rating TRZAWR ([6]; rate 0.0313 kg/ha): 3.5 | Herbicidal rating TRZAWR ([6]; rate 0.0625 kg/ha): 4.0 | herbicidal effect rating, CYPIR ([7]; 0.0313 kg/ha): 0.0 | herbicidal effect rating, CYPIR ([7]; 0.0625 kg/ha): 0.0 | herbicidal effect rating, CYPIR ([7]; 0.1250 kg/ha): 0.0 | herbicidal effect rating, CYPIR ([7]; 0.2500 kg/ha): 3.0 | Preemergence herbicidal rating ABUTH [8, 13]: 9.0 | Preemergence herbicidal rating ABUTH [8, 14]: 9.0 | Preemergence herbicidal rating ABUTH [8, 15]: 9.0 | Preemergence herbicidal rating ECHCG [9, 13]: 0.0 | Preemergence herbicidal rating ECHCG [9, 14]: 0.0 | Preemergence herbicidal rating ECHCG [9, 15]: 7.0 | Herbicidal rating SETVI ([10]; rate 0.0156 kg/ha): 1.0 | Herbicidal rating SETVI ([10]; rate 0.0313 kg/ha): 4.0 | Herbicidal rating SETVI ([10]; rate 0.0625 kg/ha): 3.0 | herbicidal effect rating, MOOVA ([11]; 0.0313 kg/ha): 6.0 | herbicidal effect rating, MOOVA ([11]; 0.0625 kg/ha): 9.0 | herbicidal effect rating, MOOVA ([11]; 0.1250 kg/ha): 9.0 | herbicidal effect rating, MOOVA ([11]; 0.2500 kg/ha): 9.0 | herbicidal effect rating, ECHORC ([12]; 0.0313 kg/ha): 3.0 | herbicidal effect rating, ECHORC ([12]; 0.0625 kg/ha): 4.0 | herbicidal effect rating, ECHORC ([12]; 0.1250 kg/ha): 4.0 | herbicidal effect rating, ECHORC ([12]; 0.2500 kg/ha): 6.0

Cn1c(C(F)(F)F)cc(=O)n(-c2cc(N=C3SCC(=O)N3C3CCCC3)c(Cl)cc2F)c1=O [Compound 166, 3-{4-Chloro-5-[(3-cyclopentyl-4-oxo-2-thiazolidinylidene)amino]-2-fluorophenyl}-1-methyl-6-(trifluoromethyl)-2,4(1H,3H)-pyrimidinedione]
Herbicidal rating GALAP ([1]; rate 0.0156 kg/ha): 0.0 | Herbicidal rating GALAP ([1]; rate 0.0313 kg/ha): 0.0 | Herbicidal rating GALAP ([1]; rate 0.0625 kg/ha): 0.0 | Herbicidal rating GALAP ([1]; rate 0.1250 kg/ha): 2.0 | Herbicidal rating IPOHE ([2]; rate 0.0156 kg/ha): 0.0 | Herbicidal rating IPOHE ([2]; rate 0.0313 kg/ha): 2.0 | Herbicidal rating IPOHE ([2]; rate 0.0625 kg/ha): 2.0 | Herbicidal rating IPOHE ([2]; rate 0.1250 kg/ha): 7.0 | Preemergence herbicidal rating IPOHE ([3]; 0.0156 kg/ha): 0.0 | Preemergence herbicidal rating IPOHE ([3]; 0.0313 kg/ha): 3.0 | Preemergence herbicidal rating IPOHE ([3]; 0.1250 kg/ha): 2.0 | Preemergence herbicidal rating IPOHE ([3]; 0.2500 kg/ha): 6.0 | Preemergence herbicidal rating IPOHE ([3]; 0.5000 kg/ha): 8.0 | Preemergence herbicidal rating ZEAMX ([4]; 0.0156 kg/ha): 0.0 | Preemergence herbicidal rating ZEAMX ([4]; 0.0313 kg/ha): 0.0 | Preemergence herbicidal rating ZEAMX ([4]; 0.0625 kg/ha): 1.0 | Preemergence herbicidal rating ZEAMX ([4]; 0.1250 kg/ha): 1.0 | Preemergence herbicidal rating ZEAMX ([4]; 0.2500 kg/ha): 3.0 | Preemergence herbicidal rating ZEAMX ([4]; 0.5000 kg/ha): 6.0 | Preemergence herbicidal rating SETVI ([5]; 0.0156 kg/ha): 0.0 | Preemergence herbicidal rating SETVI ([5]; 0.0313 kg/ha): 0.0 | Preemergence herbicidal rating SETVI ([5]; 0.0625 kg/ha): 1.0 | Preemergence herbicidal rating SETVI ([5]; 0.1250 kg/ha): 6.0 | Preemergence herbicidal rating SETVI ([5]; 0.2500 kg/ha): 6.0 | Preemergence herbicidal rating SETVI ([5]; 0.5000 kg/ha): 9.0 | Herbicidal rating TRZAWR ([6]; rate 0.0156 kg/ha): 1.5 | Herbicidal rating TRZAWR ([6]; rate 0.0313 kg/ha): 1.5 | Herbicidal rating TRZAWR ([6]; rate 0.0625 kg/ha): 2.5 | Herbicidal rating TRZAWR ([6]; rate 0.1250 kg/ha): 3.0 | herbicidal effect rating, CYPIR ([7]; 0.0313 kg/ha): 2.0 | herbicidal effect rating, CYPIR ([7]; 0.0625 kg/ha): 2.0 | herbicidal effect rating, CYPIR ([7]; 0.1250 kg/ha): 6.0 | herbicidal effect rating, CYPIR ([7]; 0.2500 kg/ha): 9.0 | Preemergence herbicidal rating ABUTH ([8]; 0.0156 kg/ha): 0.0 | Preemergence herbicidal rating ABUTH ([8]; 0.0313 kg/ha): 2.0 | Preemergence herbicidal rating ABUTH ([8]; 0.0625 kg/ha): 1.0 | Preemergence herbicidal rating ABUTH ([8]; 0.1250 kg/ha): 7.0 | Preemergence herbicidal rating ABUTH ([8]; 0.2500 kg/ha): 9.0 | Preemergence herbicidal rating ABUTH ([8]; 0.5000 kg/ha): 9.0 | Preemergence herbicidal rating ECHCG ([9]; 0.0156 kg/ha): 0.0 | Preemergence herbicidal rating ECHCG ([9]; 0.0313 kg/ha): 0.0 | Preemergence herbicidal rating ECHCG ([9]; 0.0625 kg/ha): 1.0 | Preemergence herbicidal rating ECHCG ([9]; 0.1250 kg/ha): 0.0 | Preemergence herbicidal rating ECHCG ([9]; 0.2500 kg/ha): 0.0 | Preemergence herbicidal rating ECHCG ([9]; 0.5000 kg/ha): 4.0 | Herbicidal rating SETVI ([10]; rate 0.0156 kg/ha): 0.0 | Herbicidal rating SETVI ([10]; rate 0.0313 kg/ha): 0.0 | Herbicidal rating SETVI ([10]; rate 0.0625 kg/ha): 1.0 | Herbicidal rating SETVI ([10]; rate 0.1250 kg/ha): 2.0 | herbicidal effect rating, MOOVA ([11]; 0.0313 kg/ha): 9.0 | herbicidal effect rating, MOOVA ([11]; 0.0625 kg/ha): 9.0 | herbicidal effect rating, MOOVA ([11]; 0.1250 kg/ha): 9.0 | herbicidal effect rating, MOOVA ([11]; 0.2500 kg/ha): 9.0 | herbicidal effect rating, ECHORC ([12]; 0.0313 kg/ha): 2.0 | herbicidal effect rating, ECHORC ([12]; 0.0625 kg/ha): 2.0 | herbicidal effect rating, ECHORC ([12]; 0.1250 kg/ha): 2.0 | herbicidal effect rating, ECHORC ([12]; 0.2500 kg/ha): 4.0

CCOC(=O)CN1C(=O)C(Br)SC1=Nc1cc(-n2c(=O)cc(C(F)(F)F)n(C)c2=O)c(F)cc1Cl (stereo not shown) [Compound 153, Ethyl 5-bromo-2-[{2-chloro-5-[3,6-dihydro-3-methyl-2,6-dioxo-4-(trifluoromethyl)-1(2H)-pyrimidinyl]-4-fluorophenyl}imino}-4-oxo-3-thiazolidineacetate]
Herbicidal rating GALAP ([1]; rate 0.0156 kg/ha): 0.0 | Herbicidal rating GALAP ([1]; rate 0.0313 kg/ha): 0.0 | Herbicidal rating GALAP ([1]; rate 0.0625 kg/ha): 0.0 | Herbicidal rating IPOHE ([2]; rate 0.0156 kg/ha): 4.0 | Herbicidal rating IPOHE ([2]; rate 0.0313 kg/ha): 6.0 | Herbicidal rating IPOHE ([2]; rate 0.0625 kg/ha): 9.0 | Preemergence herbicidal rating IPOHE [3, 14]: 1.0 | Preemergence herbicidal rating IPOHE [3, 15]: 0.0 | Preemergence herbicidal rating ZEAMX [4, 14]: 0.0 | Preemergence herbicidal rating ZEAMX [4, 15]: 0.0 | Preemergence herbicidal rating SETVI [5, 14]: 1.0 | Preemergence herbicidal rating SETVI [5, 15]: 0.0 | Herbicidal rating TRZAWR ([6]; rate 0.0156 kg/ha): 2.0 | Herbicidal rating TRZAWR ([6]; rate 0.0313 kg/ha): 2.0 | Herbicidal rating TRZAWR ([6]; rate 0.0625 kg/ha): 3.0 | herbicidal effect rating, CYPIR ([7]; 0.0625 kg/ha): 0.0 | herbicidal effect rating, CYPIR ([7]; 0.1250 kg/ha): 0.0 | herbicidal effect rating, CYPIR ([7]; 0.2500 kg/ha): 3.0 | Preemergence herbicidal rating ABUTH [8, 14]: 0.0 | Preemergence herbicidal rating ABUTH [8, 15]: 2.0 | Preemergence herbicidal rating ECHCG [9, 14]: 0.0 | Preemergence herbicidal rating ECHCG [9, 15]: 0.0 | Herbicidal rating SETVI ([10]; rate 0.0156 kg/ha): 0.0 | Herbicidal rating SETVI ([10]; rate 0.0313 kg/ha): 0.0 | Herbicidal rating SETVI ([10]; rate 0.0625 kg/ha): 0.0 | herbicidal effect rating, MOOVA ([11]; 0.0625 kg/ha): 3.0 | herbicidal effect rating, MOOVA ([11]; 0.1250 kg/ha): 4.0 | herbicidal effect rating, MOOVA ([11]; 0.2500 kg/ha): 5.0 | herbicidal effect rating, ECHORC ([12]; 0.0625 kg/ha): 0.0 | herbicidal effect rating, ECHORC ([12]; 0.1250 kg/ha): 0.0 | herbicidal effect rating, ECHORC ([12]; 0.2500 kg/ha): 0.0
